Laboratory results reported in US6646129B2, “Cyanoguanidines as cell proliferation inhibitors” (Leo Pharmaceutical Products Ltd. A/S, priority 1997, dated 2003).

How the values were obtained:
Assay type in all cases: cell-based
[1] = test system: human breast cancer (MCF-7) cell line; assay: Inhibition of tumour cell proliferation in vitro, [3H]thymidine incorporation, MCF-7; conditions: MCF-7 cells, 24 hours with compound, DNA synthesis by [3H]thymidine incorporation
Experimental: (§1) The inhibition of tumour cell proliferation was studied using different types of human cancer cell lines. The cell lines under investigation were small cell lung carcinoma (NYH), non small cell lung carcinoma (NCl-H460), and breast cancer (MCF-7) using the following general procedure:
(§2) The cells were cultured in vitro for 24 hours in the presence of the compound under investigation. DNA synthesis was measured by incorporation of [^3H]thymidine, and the median inhibitory concentrations (IC50) of the compounds were calculated.

[2] = test system: human small cell lung carcinoma (NYH) cell line; assay: Inhibition of tumour cell proliferation in vitro, [3H]thymidine incorporation, NYH; conditions: NYH cells, 24 hours with compound, DNA synthesis by [3H]thymidine incorporation
Experimental: as §1, §2

[3] = test system: human non small cell lung cancer (NCI-H460) cell line; assay: Inhibition of tumour cell proliferation in vitro, [3H]thymidine incorporation, NCI-H460; conditions: NCI-H460 cells, 24 hours with compound, DNA synthesis by [3H]thymidine incorporation
Experimental: as §1, §2

SMILES | IC50 ([1]; Homo sapiens, MCF7) [nM] | IC50 ([2]; Homo sapiens) [nM] | IC50 ([3]; Homo sapiens) [nM] | IC50 [1] [nM] | IC50 [2] [nM] | IC50 [3] [nM]
CC(C)(C)OC(=O)NCCCCCCCCCCCCNC(=Nc1ccncc1)NC#N [Example No. 1, N-(1 2-t-Butoxycarbonylaminododecyl)-N′-cyano-N″-4-pyridylguanidine] | 3.6 | 0.62 | 45 |  |  | 
N#CNC(=NCCCCCCCCCCCOC1CCCCO1)Nc1ccncc1 (stereo not drawn) [Example No. 7, N-Cyano-N′-4-pyridyl-N″-(11-tetrahydropyranyloxyundecanyl)guanidine] |  |  |  | 4.2 | 0.51 | 4.6
CCP(=O)(CC)OCCCCCCCCCCCNC(=Nc1ccncc1)NC#N [Example No. 8, N-Cyano-N′-(11-diethylphosphinoyloxyundecanyl)-N″-4-pyridylguanidine] | 1.7 | 0.48 | 6 |  |  | 
